Experimental data: patent publication US4485110A, “β-Lactam compounds, and use” (priority 1980, dated 1984)
Read-outs that look alike come from different tables or passages of the source.

Key:
Assay type in all cases: cell-based
E. cloacae N1 = experiment: β-Lactamase inhibitory activity: antibiotic MIC alone or in combination; details: for MIC: Enterobacter cloacae
P. mirabilis 977 [1] = experiment: as above
Source text: (§1) These tables show the MIC values of amoxycillin, cephaloridine, ticarcillin and apalcillin against a number of β-lactamase producing organisms.

P. aeruginosa A [2] = experiment: as above; details: Pseudomonas aeruginosa
Source text: as §1

P. rettgeri WM16 = experiment: as above; details: for MIC: Providencia rettgeri
Source text: as §1

E. coli JT20R+ = experiment: as above; details: Escherichia coli
Source text: as §1

K. aerogenes A [3] = experiment: as above; details: Klebsiella aerogenes
Source text: as §1

P. aeruginosa Dalgleish = experiment: as above; details: Pseudomonas aeruginosa
Source text: as §1

K. aerogenes Ba95R+ = experiment: as above; details: Klebsiella aerogenes
Source text: as §1

S. aureus MB9 = experiment: as above; details: Staphylococcus aureus
Source text: as §1

K. aerogenes I112 = experiment: as above; details: for MIC: Klebsiella aerogenes
Source text: as §1

P. vulgaris WO91 = experiment: as above; details: for MIC: Proteus vulgaris
Source text: as §1

E. coli JT39R+ = experiment: as above; details: for MIC: Escherichia coli
Source text: as §1

C. freundii E8 = experiment: as above; details: for MIC: Citrobacter freundii
Source text: as §1

E. coli JT410 C+ = experiment: as above; details: for MIC: Escherichia coli
Source text: as §1

E. coli 0111 [4] = experiment: as above
Source text: as §1

S. marcescens US20 = experiment: as above; details: for MIC: Serratia marcescens
Source text: as §1

P. morganii 1580 = experiment: as above
Source text: as §1

C. freundii B10R+ = experiment: as above; details: Citrobacter freundii
Source text: as §1

P. mirabilis 889 = experiment: as above
Source text: as §1

S. aureus Russell [5] = experiment: as above; details: Staphylococcus aureus
Source text: as §1

S. sonnei MB 11967 = experiment: Antibacterial activity, broth MIC; details: Shigella sonnei, MB11967, compound alone
Source text: (§2) The antibacterial activity of a number of compounds described in the foregoing Examples against a number of organisms is shown in Tables 1 and 10.

P. mirabilis 977 [6] = experiment: Antibacterial activity, broth MIC; details: Proteus mirabilis, compound alone
Source text: as §2

P. aeruginosa A [7] = experiment: Antibacterial activity, broth MIC; details: Pseudomonas aeruginosa, compound alone
Source text: as §2

E. coli JT 39 R^+ = experiment: Antibacterial activity, broth MIC; details: Escherichia coli, read-out: Broth MIC
Source text: as §2

K. aerogenes A [8] = experiment: Antibacterial activity, broth MIC; details: Klebsiella aerogenes, read-out: Broth MIC
Source text: as §2

S. marcescens US 20 = experiment: Antibacterial activity, broth MIC; details: Serratia marcescens, US20; compound alone, broth; read-out: Broth MIC
Source text: as §2

S. faecalis I = experiment: Antibacterial activity, broth MIC; details: Enterococcus faecalis; compound alone, broth; read-out: Broth MIC
Source text: as §2

E. cloacae N 1 = experiment: Antibacterial activity, broth MIC; details: Enterobacter cloacae, N1, compound alone
Source text: as §2

S. typhimurium CT 10 = experiment: Antibacterial activity, broth MIC; details: Salmonella enterica, compound alone
Source text: as §2

S. aureus Oxford = experiment: Antibacterial activity, broth MIC; details: Staphylococcus aureus, compound alone
Source text: as §2

P. rettgeri WM 16 = experiment: Antibacterial activity, broth MIC; details: Providencia rettgeri, WM16, compound alone
Source text: as §2

E. coli 0111 [9] = experiment: Antibacterial activity, broth MIC; details: Escherichia coli, compound alone
Source text: as §2

C. freundii E 8 = experiment: Antibacterial activity, broth MIC; details: Citrobacter freundii, E8; compound alone, broth; read-out: Broth MIC
Source text: as §2

B. subtilis A = experiment: Antibacterial activity, broth MIC; details: Bacillus subtilis, compound alone
Source text: as §2

P. morganii I 580 = experiment: Antibacterial activity, broth MIC; details: Morganella morganii, I580, compound alone
Source text: as §2

P. vulgaris WO 91 = experiment: Antibacterial activity, broth MIC; details: Proteus vulgaris, WO91, compound alone
Source text: as §2

E. coli ESS = experiment: Antibacterial activity, broth MIC; details: Escherichia coli; compound alone, broth; read-out: Broth MIC
Source text: as §2

S. pneumoniae CN 33 = experiment: Antibacterial activity, broth MIC; details: Streptococcus pneumoniae, CN33, compound alone
Source text: as §2

S. aureus 1517 = experiment: Antibacterial activity, broth MIC; details: Staphylococcus aureus, compound alone
Source text: as §2

S. pyogenes CN 10 = experiment: Antibacterial activity, broth MIC; details: Streptococcus pyogenes, CN10, compound alone
Source text: as §2

S. aureus Russell [10] = experiment: Antibacterial activity, broth MIC; details: Staphylococcus aureus, compound alone
Source text: as §2

[11] = cephaloridine alone, read-out: Cephaloridine MIC
[12] = apalcillin alone, read-out: Apalcillin MIC
[13] = ticarcillin alone, read-out: Ticarcillin MIC

O=C(Cc1cccs1)N[C@@H]1C(=O)N2C(C(=O)[O-])=C(C[n+]3ccccc3)CS[C@H]12 [Cephaloridine]
MIC (E. cloacae N1; N1, cephaloridine alone, read-out: Cephaloridine MIC): 500 µg/mL
Cephaloridine MIC (E. cloacae N1; cephaloridine alone): 1000 µg/mL
MIC (P. mirabilis 977 [1]; Proteus mirabilis, 977, cephaloridine alone, read-out: Cephaloridine MIC): 10 µg/mL
Cephaloridine MIC (P. mirabilis 977 [1]; cephaloridine alone): 5.0 µg/mL
MIC (P. aeruginosa A [2]; [11]): > 1000 µg/mL
MIC (P. rettgeri WM16; WM16, cephaloridine alone, read-out: Cephaloridine MIC): 1000 µg/mL
Cephaloridine MIC (P. rettgeri WM16; cephaloridine alone): > 1000 µg/mL
MIC (E. coli JT20R+; read-out: Cephaloridine MIC): 25 µg/mL
MIC (K. aerogenes A [3]; [11]): 2.5 µg/mL
MIC (P. aeruginosa Dalgleish; [11]): > 1000 µg/mL
MIC (K. aerogenes Ba95R+; read-out: Cephaloridine MIC): 100 µg/mL
MIC (S. aureus MB9; MB9, cephaloridine alone, read-out: Cephaloridine MIC): < 0.2 µg/mL
MIC (K. aerogenes I112; I112, read-out: Cephaloridine MIC, cephaloridine alone): 5 µg/mL
MIC (P. vulgaris WO91; WO91, cephaloridine alone, read-out: Cephaloridine MIC): 1000 µg/mL
Cephaloridine MIC (P. vulgaris WO91; cephaloridine alone): > 1000 µg/mL
MIC (E. coli JT39R+; read-out: Cephaloridine MIC, cephaloridine alone): 5 µg/mL
Cephaloridine MIC (E. coli JT39R+; cephaloridine alone): 10 µg/mL
MIC (C. freundii E8; E8, cephaloridine alone, read-out: Cephaloridine MIC): 500 µg/mL
MIC (E. coli JT410 C+; [11]): 50 µg/mL
Cephaloridine MIC (E. coli JT410 C+; cephaloridine alone): 100 µg/mL
MIC (E. coli 0111 [4]; Escherichia coli, 0111, cephaloridine alone, read-out: Cephaloridine MIC): 2.5 µg/mL
Cephaloridine MIC (E. coli 0111 [4]; cephaloridine alone): 5.0 µg/mL
MIC (S. marcescens US20; US20, cephaloridine alone, read-out: Cephaloridine MIC): 1000 µg/mL
Cephaloridine MIC (S. marcescens US20; cephaloridine alone): > 1000 µg/mL
MIC (P. morganii 1580; Morganella morganii, 1580, cephaloridine alone, read-out: Cephaloridine MIC): 1000 µg/mL
Cephaloridine MIC (P. morganii 1580; cephaloridine alone): > 1000 µg/mL
MIC (C. freundii B10R+; read-out: Cephaloridine MIC): > 1000 µg/mL

CC1(C)S[C@@H]2[C@H](NC(=O)[C@H](NC(=O)c3cnc4cccnc4c3O)c3ccccc3)C(=O)N2[C@H]1C(=O)O [Apalcillin]
MIC (E. cloacae N1; N1, apalcillin alone, read-out: Apalcillin MIC): 5 µg/mL
MIC (P. mirabilis 977 [1]; Proteus mirabilis, 977, apalcillin alone, read-out: Apalcillin MIC): 2.5 µg/mL
MIC (P. aeruginosa A [2]; [12]): 2.5 µg/mL
MIC (P. rettgeri WM16; WM16, apalcillin alone, read-out: Apalcillin MIC): 10 µg/mL
MIC (E. coli JT20R+; read-out: Apalcillin MIC): > 1000 µg/mL
MIC (K. aerogenes A [3]; [12]): 10 µg/mL
MIC (P. aeruginosa Dalgleish; [12]): > 1000 µg/mL
MIC (P. mirabilis 889; Proteus mirabilis, 889, apalcillin alone, read-out: Apalcillin MIC): > 1000 µg/mL
MIC (K. aerogenes Ba95R+; read-out: Apalcillin MIC): > 1000 µg/mL
MIC (S. aureus MB9; MB9, apalcillin alone, read-out: Apalcillin MIC): 50 µg/mL
MIC (K. aerogenes I112; I112, read-out: Apalcillin MIC, apalcillin alone): 25 µg/mL
MIC (P. vulgaris WO91; WO91, apalcillin alone, read-out: Apalcillin MIC): 10 µg/mL
MIC (E. coli JT39R+; read-out: Apalcillin MIC, apalcillin alone): 1000 µg/mL
MIC (C. freundii E8; E8, apalcillin alone, read-out: Apalcillin MIC): 2.5 µg/mL
MIC (E. coli JT410 C+; [12]): 25 µg/mL
MIC (E. coli 0111 [4]; Escherichia coli, 0111, apalcillin alone, read-out: Apalcillin MIC): 2.5 µg/mL
MIC (S. marcescens US20; US20, apalcillin alone, read-out: Apalcillin MIC): 5 µg/mL
MIC (P. morganii 1580; Morganella morganii, 1580, apalcillin alone, read-out: Apalcillin MIC): 1000 µg/mL
MIC (S. aureus Russell [5]; [12]): 250 µg/mL
MIC (C. freundii B10R+; read-out: Apalcillin MIC): > 1000 µg/mL

CC=C1C(=O)N2C(C(=O)O)=C(SCCNC(C)=O)SC12 (racemic) [Compound 59, (5RS)-Sodium 2-(2-Acetamidoethylthio)-6-ethylidenepenem-3-carboxylate]
MIC (S. sonnei MB 11967): 25 µg/mL
MIC (P. mirabilis 977 [6]): 25 µg/mL
MIC (P. aeruginosa A [7]): > 100 µg/mL
MIC (E. coli JT 39 R^+): 12.5 µg/mL
MIC (K. aerogenes A [8]): 12.5 µg/mL
MIC (S. marcescens US 20): 25 µg/mL
MIC (S. faecalis I): 100 µg/mL
MIC (E. cloacae N 1): 25 µg/mL
MIC (S. typhimurium CT 10): 12.5 µg/mL
MIC (S. aureus Oxford): 3.1 µg/mL
MIC (P. rettgeri WM 16): 25 µg/mL
MIC (E. coli 0111 [9]): 25 µg/mL
MIC (C. freundii E 8): 25 µg/mL
MIC (B. subtilis A): 3.1 µg/mL
MIC (P. morganii I 580): 25 µg/mL
MIC (P. vulgaris WO 91): 25 µg/mL
MIC (E. coli ESS): 3.1 µg/mL
MIC (S. pneumoniae CN 33): 0.2 µg/mL
MIC (S. aureus 1517): > 100 µg/mL
MIC (S. pyogenes CN 10): ≤ 0.1 µg/mL
MIC (S. aureus Russell [10]): 3.1 µg/mL

CC1(C)S[C@@H]2[C@H](NC(=O)[C@H](C(=O)O)c3ccsc3)C(=O)N2[C@H]1C(=O)O [Ticarcillin]
MIC (E. cloacae N1; N1, ticarcillin alone, read-out: Ticarcillin MIC): 2.5 µg/mL
MIC (P. mirabilis 977 [1]; Proteus mirabilis, 977, ticarcillin alone, read-out: Ticarcillin MIC): 1 µg/mL
MIC (P. aeruginosa A [2]; [13]): 25 µg/mL
MIC (E. coli JT20R+; read-out: Ticarcillin MIC): > 1000 µg/mL
MIC (K. aerogenes A [3]; [13]): 100 µg/mL
MIC (P. aeruginosa Dalgleish; [13]): > 1000 µg/mL
MIC (P. mirabilis 889; Proteus mirabilis, 889, ticarcillin alone, read-out: Ticarcillin MIC): > 1000 µg/mL
MIC (K. aerogenes Ba95R+; read-out: Ticarcillin MIC): > 1000 µg/mL
MIC (S. aureus MB9; MB9, ticarcillin alone, read-out: Ticarcillin MIC): 10 µg/mL
MIC (K. aerogenes I112; I112, read-out: Ticarcillin MIC, ticarcillin alone): 500 µg/mL
Ticarcillin MIC (K. aerogenes I112; ticarcillin alone): 250 µg/mL
MIC (E. coli JT39R+; read-out: Ticarcillin MIC, ticarcillin alone): > 1000 µg/mL
MIC (C. freundii E8; E8, ticarcillin alone, read-out: Ticarcillin MIC): 2.5 µg/mL
Ticarcillin MIC (C. freundii E8; ticarcillin alone): 5.0 µg/mL
MIC (E. coli 0111 [4]; Escherichia coli, 0111, ticarcillin alone, read-out: Ticarcillin MIC): 5 µg/mL
MIC (S. marcescens US20; US20, ticarcillin alone, read-out: Ticarcillin MIC): 5 µg/mL
MIC (S. aureus Russell [5]; [13]): 25 µg/mL
MIC (C. freundii B10R+; read-out: Ticarcillin MIC): > 1000 µg/mL
